In PubChem BioAssay AID2060603 (Molecular Pharmacology Branch, DTP, NCI, 2025):

Test system: 422866-222-R5-J1-PDC spheroid viability
Test: Anticancer human tumor 422866-222-R5-J1-PDC patient-derived pancreatic adenocarcinoma cell line growth inhibition [CLK]
Settings: spheroids with HUVEC and MSC; for IC50: curve of first compound; for viability, T/C: stronger effect = lower value
How it was run: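 Patient-derived tumor cells grown as complex spheroids with HUVEC endothelial cells and mesenchymal stem cells, treated with drug combinations. Concentrations descend in half-log steps from near clinical Cmax, or from 10 microM if Cmax unknown.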
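Further: spheroids exposed to agents for seven days before readout.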

SMILES: CC(C)CC(NC(=O)C(Cc1ccccc1)NC(=O)c1cnccn1)B(O)O (configuration not stated) + CNC(=O)c1ccc(Nc2nc(OC3CCCC3)c3c(-c4ccc5nc(C)oc5c4)c[nH]c3n2)c(OC)c1
- IC50 (second compound 0.0316 µM): 5.65 nM
- IC50 (second compound 0.1 µM): 5.52 nM
- IC50 (second compound 0.316 µM): 4.54 nM
- IC50 (second compound 1 µM): 4.19 nM
- IC50 (second compound 3.16 µM): 4.29 nM
- IC50 (second compound 10 µM): 4.12 nM
- viability, T/C (second compound 0.0316 µM, first compound 0.000949 µM): 94%
- viability, T/C (second compound 0.0316 µM, first compound 0.003 µM): 88.6%
- viability, T/C (second compound 0.0316 µM, first compound 0.00949 µM): 18.5%
- viability, T/C (second compound 0.0316 µM, first compound 0.03 µM): 2.14%
- viability, T/C (second compound 0.0316 µM, first compound 0.0949 µM): 0.75%
- viability, T/C (second compound 0.0316 µM, first compound 0.3 µM): 0.67%
- viability, T/C (second compound 0.1 µM, first compound 0.000949 µM): 115%
- viability, T/C (second compound 0.1 µM, first compound 0.003 µM): 90.8%
- viability, T/C (second compound 0.1 µM, first compound 0.00949 µM): 13.8%
- viability, T/C (second compound 0.1 µM, first compound 0.03 µM): 1.87%
- viability, T/C (second compound 0.1 µM, first compound 0.0949 µM): 1.7%
- viability, T/C (second compound 0.1 µM, first compound 0.3 µM): 1.33%
- viability, T/C (second compound 0.316 µM, first compound 0.000949 µM): 108%
- viability, T/C (second compound 0.316 µM, first compound 0.003 µM): 70.2%
- viability, T/C (second compound 0.316 µM, first compound 0.00949 µM): 13.9%
- viability, T/C (second compound 0.316 µM, first compound 0.03 µM): 1.54%
- viability, T/C (second compound 0.316 µM, first compound 0.0949 µM): 0.87%
- viability, T/C (second compound 0.316 µM, first compound 0.3 µM): 1.27%
- viability, T/C (second compound 1 µM, first compound 0.000949 µM): 96.5%
- viability, T/C (second compound 1 µM, first compound 0.003 µM): 67.8%
- viability, T/C (second compound 1 µM, first compound 0.00949 µM): 6.77%
- viability, T/C (second compound 1 µM, first compound 0.03 µM): 1.53%
- viability, T/C (second compound 1 µM, first compound 0.0949 µM): 3.06%
- viability, T/C (second compound 1 µM, first compound 0.3 µM): 2.68%
- viability, T/C (second compound 3.16 µM, first compound 0.000949 µM): 86.8%
- viability, T/C (second compound 3.16 µM, first compound 0.003 µM): 69.7%
- viability, T/C (second compound 3.16 µM, first compound 0.00949 µM): 6.4%
- viability, T/C (second compound 3.16 µM, first compound 0.03 µM): 1.59%
- viability, T/C (second compound 3.16 µM, first compound 0.0949 µM): 1.4%
- viability, T/C (second compound 3.16 µM, first compound 0.3 µM): 0.99%
- viability, T/C (second compound 10 µM, first compound 0.000949 µM): 84.8%
- viability, T/C (second compound 10 µM, first compound 0.003 µM): 66.5%
- viability, T/C (second compound 10 µM, first compound 0.00949 µM): 6.65%
- viability, T/C (second compound 10 µM, first compound 0.03 µM): 1.39%
- viability, T/C (second compound 10 µM, first compound 0.0949 µM): 1.44%
- viability, T/C (second compound 10 µM, first compound 0.3 µM): 1.32%
